The record followed here is patent US20140154251A1, “ANTI C-MET ANTIBODY AND USES THEREOF” (Samsung Electronics Co., Ltd., priority 2011, published 2014).

Assay [1] deals with MHCC97H (human liver cancer cell line). Briefly: MHCC97H liver cancer xenograft model. The format is in vivo, BALB/C nude mouse. The conditions noted are these: 30 mg/kg p.o., q.d. x 4 weeks. The procedure:
The antitumor activity of huAbF46-H4-A1(IgG2 Fc) was evaluated in a BALB/C nude mouse MHCC97H (human liver cancer cell line) xenograft model (referring to Example 16.2). Approximately 3 million MHCC97H cells in 100 μL of serum-free media were injected via s.c. to each of the 140 mice under anesthesia by 1-2% isoflurane. Ten days after subcutaneous inoculation with MHCC97H tumor cells, dosing commenced in the following treatment groups: 0 (PBS vehicle), 0.2, 1, 5 or 10 mg/kg huAbF46-H4-A1 (IgG2 Fc) i.v., q.w.×4 weeks; 30 mg/kg sorafenib p.o., q.d.×4 weeks (positive control). Each group consisted of 15 mice. Tumor volumes and body weights were measured two to three times a week for total study period about 4 weeks. The tumor volume (V) was calculated as follows: V (mm^3)={long axis length (mm)×(short axis length (mm))^2}/2.

Another assay deals with Akt. Briefly: Akt phosphorylation in Caki-1 cells (phospho-AKT1 Ser473 ELISA). The format is cell-based. The following applies: 5 ug/ml, 30 minutes (FIG. 8B). The method, then: To compare agonism of the 4 types of antibodies having improved affinities, as prepared in Example 5, Caki-1 cells (Korean Cell Line Bank) were used to confirm the degree of Akt phosphorylation. Mouse IgG was used as a negative control, and antibody 5D5 (a known agonist) was used as a positive control.
2×10^5 cells/ml of Caki-1 cells were introduced to a 96-well plate, and after 24 hours, each of 5 ug/ml of the antibodies was treated in serum free medium for 30 minutes. Lysis of the cells treated with the antibodies was performed and the degree of Akt phosphorylation was measured using a PathScan phospho-AKT1 (Ser473) chemiluminescent Sandwich ELISA kit (Cell Signaling, cat. no #7134S).
To compare agonism of the 3 types of antibodies having improved affinities, as prepared in Example 11, Caki-1 cells (Korean Cell Line Bank) were used to confirm the degree of Akt phosphorylation. Mouse IgG was used as a negative control, and a 5D5 antibody (a known agonist) was used as a positive control.
2×10^5 cells/ml of Caki-1 cells were introduced to a 96-well plate, and after 24 hours, each of 5 ug/ml of the antibodies was treated in serum free medium for 30 minutes. Lysis of the cells treated with antibodies was performed and a degree of Akt phosphorylation inhibition was measured using a PathScan phospho-AKT1 (Ser473) a chemiluminescent Sandwich ELISA kit (Cell Signaling, cat. no #7134S).
For orientation: An ELISA detects its analyte on a solid surface through an enzyme-linked reagent.

Take `CNC(=O)c1cc(Oc2ccc(NC(=O)Nc3ccc(Cl)c(C(F)(F)F)c3)cc2)ccn1` [sorafenib, reference compound]: the “tumor growth (in words)” value in assay [1] is listed as “significant inhibition”.

B1: L3-11Y: heavy chain of huAbF46-H4-A1 (IgG2 Fc) with light chain SEQ ID NO: 73 (serine 27e replaced with tryptophan) (antibody)
heavy: EVQLVESGGGLVQPGGSLRLSCAASGFTFTDYYMSWVRQAPGKGLEWLGFIRNKANGYTTEYSASVKGRFTISRDNSKNTLYLQMNSLRAEDTAVYYCARDNWFAYWGQGTLVTVSSASTKGPSVFPLAPCSRSTSESTAALGCLVKDYFPEPVTVSWNSGALTSGVHTFPAVLQSSGLYSLSSVVTVPSSNFGTQTYTCNVDHKPSNTKVDKTVERKCCVECPPCPAPPVAGPSVFLFPPKPKDTLMISRTPEVTCVVVDVSHEDPEVQFNWYVDGVEVHNAKTKPREEQFNSTFRVVSVLTVVHQDWLNGKEYKCKVSNKGLPAPIEKTISKTKGQPREPQVYTLPPSREEMTKNQVSLTCLVKGFYPSDIAVEWESNGQPENNYKTTPPMLDSDGSFFLYSKLTVDKSRWQQGNVFSCSVMHEALHNHYTQKSLSLSPGK
light: DIQMTQSPSSLSASVGDRVTITCKSSQSLLAWGNQNNYLAWYQQKPGKAPKMLIIWASTRVSGVPSRFSGSGSGTDFTLTISSLQPEDFATYYCQQSYSRPYTFGQGTKVEIKRTVAAPSVFIFPPSDEQLKSGTASVVCLLNNFYPREAKVQWKVDNALQSGNSQESVTEQDSKDSTYSLSSTLTLSKADYEKHKVYACEVTHQGLSSPVTKSFNRGEC
On to B1, for which the “activity of Akt phosphorylation inhibition compared to huAbF46-H4-A1(IgG2 Fc)” value in the assay on Akt is listed as “equal or higher activity of Akt phosphorylation inhibition”.
